Reference: patent US10259810B2, “N-sulfonylated pyrazolo[3,4-b]pyridin-6-carboxamides and method of use” (AbbVie S.à.r.l., priority 2015, dated 2019)

How the values were obtained:
ΔF508-CFTR [1] = molecular target: T1, ΔF508-CFTR (Homo sapiens, UniProt P13569, DEL508-508); test: CFTR cell surface levels using HRP-tagged ΔF508-CFTR expressing CFBE cells, intrinsic corrector capacity; format: cell-based; set-up: % Activation: concentration or dose not given beside the values
T1 construct: host or cells: CFBE41o-, doxycycline-inducible
T1 sequence (P13569 with tags, fused parts or gaps DEL508-508): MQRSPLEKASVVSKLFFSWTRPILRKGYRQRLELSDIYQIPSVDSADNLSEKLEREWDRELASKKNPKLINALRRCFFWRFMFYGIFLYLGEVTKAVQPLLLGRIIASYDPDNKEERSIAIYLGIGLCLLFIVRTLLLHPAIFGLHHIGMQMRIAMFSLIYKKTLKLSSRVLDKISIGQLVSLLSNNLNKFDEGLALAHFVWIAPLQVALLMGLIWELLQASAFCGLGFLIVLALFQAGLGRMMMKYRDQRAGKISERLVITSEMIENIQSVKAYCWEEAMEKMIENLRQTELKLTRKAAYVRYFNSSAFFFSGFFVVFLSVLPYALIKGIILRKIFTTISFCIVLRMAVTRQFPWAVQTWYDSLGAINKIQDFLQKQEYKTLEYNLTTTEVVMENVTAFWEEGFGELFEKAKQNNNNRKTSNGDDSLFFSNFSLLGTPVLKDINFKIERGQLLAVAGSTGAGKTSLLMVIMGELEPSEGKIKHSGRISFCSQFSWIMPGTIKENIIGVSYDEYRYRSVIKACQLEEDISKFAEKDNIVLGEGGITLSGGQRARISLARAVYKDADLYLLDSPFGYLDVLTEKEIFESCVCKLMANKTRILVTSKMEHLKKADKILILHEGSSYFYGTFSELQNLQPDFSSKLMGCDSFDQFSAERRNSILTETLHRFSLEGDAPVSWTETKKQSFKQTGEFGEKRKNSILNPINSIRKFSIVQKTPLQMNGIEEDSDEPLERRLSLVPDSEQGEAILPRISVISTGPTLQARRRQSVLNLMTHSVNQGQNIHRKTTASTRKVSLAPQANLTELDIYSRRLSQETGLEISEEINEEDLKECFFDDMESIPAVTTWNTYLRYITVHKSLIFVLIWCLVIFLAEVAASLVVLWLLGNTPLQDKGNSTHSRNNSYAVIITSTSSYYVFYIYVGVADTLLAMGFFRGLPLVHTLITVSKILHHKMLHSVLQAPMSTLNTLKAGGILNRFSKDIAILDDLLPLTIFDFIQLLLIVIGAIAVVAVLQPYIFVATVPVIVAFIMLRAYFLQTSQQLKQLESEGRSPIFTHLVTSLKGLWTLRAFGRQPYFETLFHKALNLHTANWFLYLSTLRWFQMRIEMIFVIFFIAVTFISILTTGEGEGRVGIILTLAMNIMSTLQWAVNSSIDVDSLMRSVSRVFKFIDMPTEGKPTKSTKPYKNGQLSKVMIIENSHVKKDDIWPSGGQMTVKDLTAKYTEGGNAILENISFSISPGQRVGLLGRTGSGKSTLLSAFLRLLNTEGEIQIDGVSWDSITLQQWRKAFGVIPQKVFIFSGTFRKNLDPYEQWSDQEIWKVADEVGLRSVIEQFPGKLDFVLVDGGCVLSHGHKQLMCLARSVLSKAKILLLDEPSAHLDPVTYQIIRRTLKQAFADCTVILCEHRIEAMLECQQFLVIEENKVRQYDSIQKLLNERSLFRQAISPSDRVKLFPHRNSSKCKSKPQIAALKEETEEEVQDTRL
Outline: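 Read-out: chemiluminescent HRP activity of ECL4-HRP-tagged ΔF508-CFTR at the cell surface, 15 min substrate in dark. Normalized as 100×(sample−DMSO)/(positive control−DMSO).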

ΔF508-CFTR [2] = molecular target: T1, ΔF508-CFTR; test: CFTR cell surface levels using HRP-tagged ΔF508-CFTR expressing CFBE cells, in the presence of a co-corrector; format: cell-based
Outline: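 Chemiluminescent read-out of surface HRP (15 min, dark) after PBS washes. Activity is normalized as 100×(sample−DMSO)/(3 μM co-corrector alone−DMSO).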

[3] = HRP-tagged ΔF508-CFTR expressing CFBE41o- cells, compound alone (intrinsic corrector capacity), 20 hours at 33° C.
[4] = HRP-tagged ΔF508-CFTR expressing CFBE41o- cells, compound alone (intrinsic corrector capacity), 20 hours at 33° C., read-out: EC50
[5] = HRP-tagged ΔF508-CFTR CFBE cells, in the presence of 3 μM co-corrector
[6] = HRP-tagged ΔF508-CFTR CFBE cells, in the presence of 3 μM co-corrector, read-out: EC50

## CCCN(CC)S(=O)(=O)NC(=O)c1cc(OCC2CCOCC2)c2c(C3CCC3)nn(-c3ccccc3)c2n1 [Compound 355, 3-cyclobutyl-N-[ethyl(propyl)sulfamoyl]-4-[(oxan-4-yl)methoxy]-1-phenyl-1H-pyrazolo[3,4-b]pyridine-6-carboxamide]
ΔF508-CFTR [1]; [3]
  % Activation: 102.4%
ΔF508-CFTR [1]; [4]
  EC50: 161 nM
ΔF508-CFTR [2]; [5]
  % Activation: 278.4%
ΔF508-CFTR [2]; [6]
  EC50: 377 nM

## CCOC(=O)N1CCC(NS(=O)(=O)NC(=O)c2cc(OCC3CCOCC3)c3c(C4CCC4)nn(-c4ccccc4)c3n2)CC1 [Compound 356, ethyl 4-[({3-cyclobutyl-4-[(oxan-4-yl)methoxy]-1-phenyl-1H-pyrazolo[3,4-b]pyridine-6-carbonyl}sulfamoyl)amino]piperidine-1-carboxylate]
ΔF508-CFTR [1]; [3]
  % Activation: 188.25%
ΔF508-CFTR [1]; [4]
  EC50: 105 nM
ΔF508-CFTR [2]; [5]
  % Activation: 372%
ΔF508-CFTR [2]; [6]
  EC50: 48.3 nM

## CC(=O)N1CCCN(S(=O)(=O)NC(=O)c2cc(OCC3CCOCC3)c3c(C4CCC4)nn(-c4ccccc4)c3n2)CC1 [Compound 357, N-(4-acetyl-1,4-diazepane-1-sulfonyl)-3-cyclobutyl-4-[(oxan-4-yl)methoxy]-1-phenyl-1H-pyrazolo[3,4-b]pyridine-6-carboxamide]
ΔF508-CFTR [1]; [3]
  % Activation: 72.83%
ΔF508-CFTR [1]; [4]
  EC50: 115 nM
ΔF508-CFTR [2]; [5]
  % Activation: 229.8%
ΔF508-CFTR [2]; [6]
  EC50: 130 nM

## COCC1CCN(c2cc(C(=O)NS(=O)(=O)CCO)nc3c2c(C2CCC2)nn3-c2ccccc2)CC1 [Compound 366, 3-cyclobutyl-N-(2-hydroxyethanesulfonyl)-4-[4-(methoxymethyl)piperidin-1-yl]-1-phenyl-1H-pyrazolo[3,4-b]pyridine-6-carboxamide]
ΔF508-CFTR [1]; [3]
  % Activation: 264%
ΔF508-CFTR [1]; [4]
  EC50: 298 nM
ΔF508-CFTR [2]; [5]
  % Activation: 443.7%
ΔF508-CFTR [2]; [6]
  EC50: 82.7 nM

## COCC1CCN(c2cc(C(=O)NS(=O)(=O)CCCO)nc3c2c(C2CCC2)nn3-c2ccccc2)CC1 [Compound 367, 3-cyclobutyl-N-(3-hydroxypropane-1-sulfonyl)-4-[4-(methoxymethyl)piperidin-1-yl]-1-phenyl-1H-pyrazolo[3,4-b]pyridine-6-carboxamide]
ΔF508-CFTR [1]; [3]
  % Activation: 364.5%
ΔF508-CFTR [1]; [4]
  EC50: 311 nM
ΔF508-CFTR [2]; [5]
  % Activation: 526.17%
ΔF508-CFTR [2]; [6]
  EC50: 81.6 nM

## COCC1CCN(c2cc(C(=O)NS(=O)(=O)C3CCNCC3)nc3c2c(C2CCC2)nn3-c2ccccc2)CC1 [Compound 368, 3-cyclobutyl-4-[4-(methoxymethyl)piperidin-1-yl]-1-phenyl-N-(piperidine-4-sulfonyl)-1H-pyrazolo[3,4-b]pyridine-6-carboxamide]
ΔF508-CFTR [1]; [3]
  % Activation: 185%
ΔF508-CFTR [1]; [4]
  EC50: 1360 nM
ΔF508-CFTR [2]; [5]
  % Activation: 350.23%
ΔF508-CFTR [2]; [6]
  EC50: 361 nM

## CS(=O)(=O)NC(=O)c1cc(N2CCS(=O)(=O)CC2)c2c(C3CCC3)nn(-c3ccccc3)c2n1 [Compound 371, 3-cyclobutyl-4-(1,1-dioxo-1λ^6,4-thiazinan-4-yl)-N-(methanesulfonyl)-1-phenyl-1H-pyrazolo[3,4-b]pyridine-6-carboxamide]
ΔF508-CFTR [1]; [3]
  % Activation: 121.3%
ΔF508-CFTR [1]; [4]
  EC50: 2740 nM
ΔF508-CFTR [2]; [5]
  % Activation: 271.9%
ΔF508-CFTR [2]; [6]
  EC50: 1930 nM

## COCC1CCN(c2cc(C(=O)NS(=O)(=O)CCNC(=O)OCc3ccccc3)nc3c2c(C2CCC2)nn3-c2ccccc2)CC1 [Compound 373, benzyl [2-({3-cyclobutyl-4-[4-(methoxymethyl)piperidin-1-yl]-1-phenyl-1H-pyrazolo[3,4-b]pyridine-6-carbonyl}sulfamoyl)ethyl]carbamate]
ΔF508-CFTR [1]; [3]
  % Activation: 368.2%
ΔF508-CFTR [1]; [4]
  EC50: 73 nM
ΔF508-CFTR [2]; [5]
  % Activation: 580.5%
ΔF508-CFTR [2]; [6]
  EC50: 85.8 nM

## COCC1CCN(c2cc(C(=O)NS(=O)(=O)C3(C)CC3)nc3c2c(C2CCC2)nn3-c2ccccc2)CC1 [Compound 374, 3-cyclobutyl-4-[4-(methoxymethyl)piperidin-1-yl]-N-(1-methylcyclopropane-1-sulfonyl)-1-phenyl-1H-pyrazolo[3,4-b]pyridine-6-carboxamide]
ΔF508-CFTR [1]; [3]
  % Activation: 240.7%
ΔF508-CFTR [1]; [4]
  EC50: 254 nM
ΔF508-CFTR [2]; [5]
  % Activation: 426.05%
ΔF508-CFTR [2]; [6]
  EC50: 196 nM

## COCC1CCN(c2cc(C(=O)NS(=O)(=O)CC(C)C)nc3c2c(C2CCC2)nn3-c2ccccc2)CC1 [Compound 375, 3-cyclobutyl-4-[4-(methoxymethyl)piperidin-1-yl]-N-(2-methylpropane-1-sulfonyl)-1-phenyl-1H-pyrazolo[3,4-b]pyridine-6-carboxamide]
ΔF508-CFTR [1]; [3]
  % Activation: 321.6%
ΔF508-CFTR [1]; [4]
  EC50: 571 nM
ΔF508-CFTR [2]; [5]
  % Activation: 546.75%
ΔF508-CFTR [2]; [6]
  EC50: 241 nM

## COCC1CCN(c2cc(C(=O)NS(=O)(=O)CC(=O)OC)nc3c2c(C2CCC2)nn3-c2ccccc2)CC1 [Compound 376, methyl ({3-cyclobutyl-4-[4-(methoxymethyl)piperidin-1-yl]-1-phenyl-1H-pyrazolo[3,4-b]pyridine-6-carbonyl}sulfamoyl)acetate]
ΔF508-CFTR [1]; [3]
  % Activation: 355.7%
ΔF508-CFTR [1]; [4]
  EC50: 117 nM
ΔF508-CFTR [2]; [5]
  % Activation: 496.8%
ΔF508-CFTR [2]; [6]
  EC50: 51.6 nM

## COCC1CCN(c2cc(C(=O)NS(=O)(=O)C3CCN(C(=O)OCc4ccccc4)C3)nc3c2c(C2CCC2)nn3-c2ccccc2)CC1 (centres unmarked) [Compound 377, benzyl 3-({3-cyclobutyl-4-[4-(methoxymethyl)piperidin-1-yl]-1-phenyl-1H-pyrazolo[3,4-b]pyridine-6-carbonyl}sulfamoyl)pyrrolidine-1-carboxylate]
ΔF508-CFTR [1]; [3]
  % Activation: 261.3%
ΔF508-CFTR [1]; [4]
  EC50: 129 nM
ΔF508-CFTR [2]; [5]
  % Activation: 485.55%
ΔF508-CFTR [2]; [6]
  EC50: 103 nM

## CC(C)c1nn(-c2ccc(F)cc2)c2nc(C(=O)NS(C)(=O)=O)cc(C3CCN(C(=O)OC(C)(C)C)CC3)c12 [Compound 378, tert-butyl 4-[1-(4-fluorophenyl)-6-[(methanesulfonyl)carbamoyl]-3-(propan-2-yl)-1H-pyrazolo[3,4-b]pyridin-4-yl]piperidine-1-carboxylate]
ΔF508-CFTR [1]; [3]
  % Activation: 160%
ΔF508-CFTR [1]; [4]
  EC50: 1330 nM
ΔF508-CFTR [2]; [5]
  % Activation: 318.6%
ΔF508-CFTR [2]; [6]
  EC50: 658 nM

## O=C(NS(=O)(=O)N1CCOCC1)c1cc(N2CCC(CN3CCCC3)CC2)c2c(C3CCC3)nn(-c3ccccc3)c2n1 [Compound 380, 3-cyclobutyl-N-(morpholine-4-sulfonyl)-1-phenyl-4-{4-[(pyrrolidin-1-yl)methyl]piperidin-1-yl}-1H-pyrazolo[3,4-b]pyridine-6-carboxamide]
ΔF508-CFTR [1]
  EC50: 279 nM
ΔF508-CFTR [1]; [3]
  % Activation: 131.7%
ΔF508-CFTR [2]
  EC50: 127 nM
ΔF508-CFTR [2]; [5]
  % Activation: 309.17%

## O=C(NS(=O)(=O)N1CCOCC1)c1cc(N2CCC(N3CCOCC3)CC2)c2c(C3CCC3)nn(-c3ccccc3)c2n1 [Compound 383, 3-cyclobutyl-N-(morpholine-4-sulfonyl)-4-[4-(morpholin-4-yl)piperidin-1-yl]-1-phenyl-1H-pyrazolo[3,4-b]pyridine-6-carboxamide]
ΔF508-CFTR [1]; [3]
  % Activation: 202.9%
ΔF508-CFTR [2]; [5]
  % Activation: 412.20%

## COCC1CCN(c2cc(C(=O)NS(=O)(=O)CC(N)=O)nc3c2c(C2CCC2)nn3-c2ccccc2)CC1 [Compound 384, N-(2-amino-2-oxoethanesulfonyl)-3-cyclobutyl-4-[4-(methoxymethyl)piperidin-1-yl]-1-phenyl-1H-pyrazolo[3,4-b]pyridine-6-carboxamide]
ΔF508-CFTR [1]; [3]
  % Activation: 228%
ΔF508-CFTR [1]; [4]
  EC50: 2860 nM
ΔF508-CFTR [2]; [5]
  % Activation: 391.35%
ΔF508-CFTR [2]; [6]
  EC50: 1440 nM

## COCC1CCN(c2cc(C(=O)NS(=O)(=O)CCNC(C)=O)nc3c2c(C2CCC2)nn3-c2ccccc2)CC1 [Compound 386, N-(2-acetamidoethanesulfonyl)-3-cyclobutyl-4-[4-(methoxymethyl)piperidin-1-yl]-1-phenyl-1H-pyrazolo[3,4-b]pyridine-6-]
ΔF508-CFTR [1]; [3]
  % Activation: 237.85%
ΔF508-CFTR [1]; [4]
  EC50: 2120 nM
ΔF508-CFTR [2]; [5]
  % Activation: 385.05%
ΔF508-CFTR [2]; [6]
  EC50: 685 nM

## COCC1CCN(c2cc(C(=O)NS(=O)(=O)C3CCNC3)nc3c2c(C2CCC2)nn3-c2ccccc2)CC1 (centres unmarked) [Compound 387, 3-cyclobutyl-4-[4-(methoxymethyl)piperidin-1-yl]-1-phenyl-N-(pyrrolidine-3-sulfonyl)-1H-pyrazolo[3,4-b]pyridine-6-carboxamide]
ΔF508-CFTR [1]; [3]
  % Activation: 60.58%
ΔF508-CFTR [1]; [4]
  EC50: 462 nM
ΔF508-CFTR [2]; [5]
  % Activation: 168.9%
ΔF508-CFTR [2]; [6]
  EC50: 161 nM

## COCC1CCN(c2cc(C(=O)NS(=O)(=O)N3CCC(N4CCCC4)CC3)nc3c2c(C2CCC2)nn3-c2ccccc2)CC1 [Compound 388, 3-cyclobutyl-4-[4-(methoxymethyl)piperidin-1-yl]-1-phenyl-N-[4-(pyrrolidin-1-yl)piperidine-1-sulfonyl]-1H-pyrazolo[3,4-b]pyridine-6-carboxamide]
ΔF508-CFTR [1]
  EC50: 218 nM
ΔF508-CFTR [1]; [3]
  % Activation: 192.8%
ΔF508-CFTR [2]
  EC50: 196 nM
ΔF508-CFTR [2]; [5]
  % Activation: 364.5%
